The source of these data is patent US20230183228A1, “SUBSTITUTED PYRAZOLYL COMPOUNDS AND METHODS OF USE THEREOF” (Chinook Therapeutics Canada, Inc., priority 2020, published 2023).

Marks after values point to notes of the source that are not given here. Bounds are passed on as bounds.

In one data set the test system is PH1 patients. The conditions noted are these: cited from earlier work.
Data set [1] addresses T1, human recombinant C-terminal His-tagged LDHA (Homo sapiens, UniProt P00338).
T1 construct: His (C)
In words: Human LDHA enzyme assay. Type of data set: biochemical. The conditions noted are these: 50 μM pyruvate, 50 μM NADH, no HSA. As for the experimental part: (§1) Compounds were dissolved in DMSO and preincubated with human recombinant C-terminal His-tagged LDHA (0.070 μg/mL) for 10 min at room temperature in assay buffer consisting 50 mM Tris, pH 7.5 and 100 mM NaCl in black walled, clear bottom, non-binding 96-well plates. Equal volumes of substrate solution containing 100 μM of pyruvate and 100 μM of NADH in assay buffer was added to each well (final concentration 0.035 μg/mL enzyme, 50 μM pyruvate, 50 μM NADH, and 1% DMSO). For human serum albumin (HSA) shift assay, the compounds were preincubated with the enzyme in assay buffer containing 20% HSA before substrate addition (final concentration 10% HSA). The reaction was monitored at 340 nm on a plate reader (Molecular Devices) in kinetic mode for 15 min. The rate of the reaction was determined by plotting absorbance vs time.

Data set [2] addresses T1, human recombinant C-terminal His-tagged LDHA. Nature of the data set: Human LDHA enzyme assay, human serum albumin (HSA) shift. Type of data set: biochemical. Conditions: final concentration 10% HSA. How it is done:
as §1

Data set [3] concerns fresh primary mouse hepatocytes. Nature of the data set: Primary mouse hepatocyte assay (lactate production). In kind it is cell-based. As for the experimental part: Compounds were evaluated in an ex vivo assay consisting of fresh primary mouse hepatocytes. Hepatocytes were isolated from wild type mice (C57BL/6NCrl from Charles River Labs) using a two-step collagenase perfusion technique which involves a sequential perfusion of anesthetized mice with Hanks' balanced salt solution and collagenase. Following isolation, viable wild type hepatocytes (0.1 M cells/well) were incubated with test compound in presence of pyruvate and compound potency was evaluated by measuring the lactate produced by the cells using liquid chromatography coupled to mass spectrometry. Chromatographic separation was achieved on an XDB-C18 4.6×50 mm column (Agilent, Cat #927975-902) at a flow rate of 1 mL/min Mobile phase A consisted of 0.1% formic acid in water and mobile phase B consisted of acetonitrile. A gradient program was initiated starting at 5% B which was held for 1 minutes, then ramped from 5% to 95% B over 1 minute. After holding at 95% B for 1 minute, the program changed back to 5% B. The column was equilibrated with 5% B for […] before the next injection. The mass spectrometer was operated in negative mode with electrospray ionization. The following transition along with their collision energy (CE) were used: 89→43 (CE: −16 V) for lactate and 92→45 (CE: −16 V) for ^13C3-Lactate (internal standard).

The nature of data set [4]: Liver and plasma concentrations in c57/bl6 mice. Type of data set: in vivo. The conditions noted are these: 20 mg/kg PO. How it is done:
[The procedure below names another organism; the source says it served here with some conditions changed.] Plasma and liver (target organ) concentrations of test compounds were determined in rats following a single per os (PO) administration of the test compounds. Male Sprague Dawley rats (6-8 weeks of age, Charles River Labs) were fasted overnight and a single dose of test compounds (10 mg/kg; as a suspension in 0.5% methyl cellulose) was administered by PO gavage. Rats were then sacrificed at 4 and 24 h after administration of the test compounds, and plasma and liver tissue samples were collected. Liver tissue samples were homogenized in 5 volumes of water:acetonitrile (50/50; v/v) mixture using a bead mill homogenizer. Plasma and liver homogenate samples were processed by protein precipitation using acetonitrile and the concentrations of the test compounds were determined by liquid chromatography-tandem mass spectrometry (SciEx triple quad 5500+ with Exion UPLC).
Liver and plasma exposures at the 4 h and 24 h timepoints for the various compounds are described in Table 5 below. Measured compound concentrations are as follows: ++++>10 μM; 10 μM≥+++>5 μM; 5 μM≥++>1 μM; 1 μM≥+>0.25 μM; and 0.25 μM≥−.

Where [5] appears, read: Run at 0.4M cells/well concentration of hepatocytes.

As to `Cc1ncc(CO)c(CO)c1O` [Pyridoxine], the “lowering of urinary oxalate” value in the data set with PH1 patients was “approximately 30%”.

For `CC(C)Oc1cc(-c2nn(-c3nc(C(=O)O)cs3)c(CC3CC3)c2Cc2ccc(S(N)(=O)=O)c(F)c2)ccc1F` [Example 7, 2-(5-(Cyclopropylmethyl)-3-(4-fluoro-3-isopropoxyphenyl)-4-(3-fluoro-4-sulfamoylbenzyl)-1H-pyrazol-1-yl)thiazole-4-carboxylic acid], the half-maximal inhibitory concentration (IC50) in data set [1] is below 1 nM; in data set [2], 1 to 10 nM; in data set [3] (setting [5]), 250 to 1000 nM. In data set [4] (liver), the “Measured Compound Concentrations Liver - 4 h” value is “++* (5 μM≥++>1 μM)”. In addition, in data set [4] (plasma), the “Measured Compound Concentrations Plasma - 4 h” value is reported as “−* (0.25 μM≥−)”.

For the molecule `Cc1c(Cc2ccc(S(N)(=O)=O)c(F)c2)c(-c2ccc(F)cc2)nn1-c1nc(C(=O)O)cs1` [Example 3, 2-(4-(3-Fluoro-4-sulfamoylbenzyl)-3-(4-fluorophenyl)-5-methyl-1H-pyrazol-1-yl)thiazole-4-carboxylic acid], the figures for the IC50 in data set [1], in data set [2] and in data set [3] (setting [5]) were below 1 nM, 1 to 10 nM and 250 to 1000 nM, respectively. Also, the “Measured Compound Concentrations Liver - 4 h” value in data set [4] (liver) is reported as “++++* (++++>10 μM)”. Also, the “Measured Compound Concentrations Plasma - 4 h” value in data set [4] (plasma) is “−* (0.25 μM≥−)”.

As for `NS(=O)(=O)c1ccc(Cc2c(-c3ccc(F)cc3)nn(-c3nc(C(=O)O)cs3)c2CC2CC2)cc1` [Example 5, 2-(5-(cyclopropylmethyl)-3-(4-fluorophenyl)-4-(4-sulfamoylbenzyl)-1H-pyrazol-1-yl)thiazole-4-carboxylic acid], the IC50 in data set [1] was below 1 nM; in data set [2], 1 to 10 nM; in data set [3] (setting [5]), 250 to 1000 nM. Also, the “Measured Compound Concentrations Liver - 4 h” value in data set [4] (liver) is on record as “++* (5 μM≥++>1 μM)”. Moreover, the “Measured Compound Concentrations Plasma - 4 h” value in data set [4] (plasma) is “−* (0.25 μM≥−)”.

Consider `CCc1c(Cc2ccc(S(N)(=O)=O)cc2)c(-c2ccc(F)cc2)nn1-c1nc(C(=O)O)cs1` [Example 4, 2-(5-ethyl-3-(4-fluorophenyl)-4-(4-sulfamoylbenzyl)-1H-pyrazol-1-yl)thiazole-4-carboxylic acid], for which the 50% inhibitory concentration (IC50) in data set [1] lay within 1 to 10 nM; in data set [2], 10 to 100 nM; in data set [3] (setting [5]), 250 to 1000 nM. In addition, in data set [4] (liver), the “Measured Compound Concentrations Liver - 4 h” value is “++* (5 μM≥++>1 μM)”. In addition, the “Measured Compound Concentrations Plasma - 4 h” value in data set [4] (plasma) was “−* (0.25 μM≥−)”.

Take `NS(=O)(=O)c1ccc(Cc2c(-c3ccc(F)cc3)nn(-c3nc(C(=O)O)cs3)c2CC2CC2)cc1Cl` [Example 10, 2-(4-(3-Chloro-4-sulfamoylbenzyl)-5-(cyclopropylmethyl)-3-(4-fluorophenyl)-1H-pyrazol-1-yl)thiazole-4-carboxylic acid]: the IC50 was below 1 nM in data set [1], 10 to 100 nM in data set [2] and 100 to 250 nM in data set [3] (0.1 M cells/well). For the same molecule, the “Measured Compound Concentrations Liver - 4 h” value in data set [4] (liver) was “+++* (10 μM≥+++>5 μM)”. The “Measured Compound Concentrations Liver - 24 h” value in data set [4] (liver, 24 h) is “−* (0.25 μM≥−)”. The “Measured Compound Concentrations Plasma - 4 h” value in data set [4] (plasma) is on record as “−* (0.25 μM≥−)”. Further, the “Measured Compound Concentrations Plasma - 24 h” value in data set [4] (plasma, 24 h) is “−* (0.25 μM≥−)”.
